Structures can show the parent of a compound that is named as a salt.
Columns and labels:
[1] = test system: Male Syrian hamsters known to develop insulin resistance and glucose intolerance; test: Glucose tolerance test (GTT) after 2 weeks of bromocriptine, with or without Exendin-4 at the GTT; assay type: in vivo, Syrian hamster; conditions: bromocriptine mesylate 4 mg/kg IP for 2 weeks, vehicle at GTT; 3 g/kg glucose; P<0.09
[2] = test system: Male Syrian hamsters known to develop insulin resistance and glucose intolerance; test: Glucose tolerance test (GTT), similarly designed experiment with insulin as first phase insulin secretagogue; assay type: in vivo, Syrian hamster
Experimental: Male Syrian hamsters known to develop insulin resistance and glucose intolerance were purchased at 4 weeks of age and kept on rodent diet for 10 weeks at 72 degrees F. and a 14 hr:10 hr daily light:dark cycle. When animals were 14 weeks of age on this daily photoperiod (known to be insulin resistant and glucose intolerant under these conditions), bromocriptine mesylate was administered intraperitoneally (IP) for 2 weeks at 4 mg/kg per hamster 13 hours after light onset to half of the animals, while the other half received vehicle injections for 2 weeks.
After 2 weeks of treatment both Bromocriptine and vehicle groups were divided into two groups for a total of 4 groups: 1. Vehicle for 2 weeks and Vehicle at initiation of a glucose tolerance test (GTT); 2. […] Bromocriptine for 2 weeks and Vehicle at GTT; 4.
Blood was drawn from the jugular vein and blood glucose level was measured every 30 minutes for 2 hours after the glucose load administration.

| Molecule | reduction of blood glucose Area Under Curve (AUC) during the GTT over two hours after glucose administration [1] [%] | reduction of glucose AUC over two hours after glucose administration ([2]; bromocriptine for 2 weeks, insulin experiment, P=0.23) [%] | reduction of glucose AUC over two hours after glucose administration ([2]; insulin 240 ng/kg IP immediately prior to glucose administration, P=0.64) |
| --- | --- | --- | --- |
| CC(C)C[C@H]1C(=O)N2CCC[C@H]2[C@]2(O)O[C@](NC(=O)[C@@H]3C=C4c5cccc6[nH]c(Br)c(c56)C[C@H]4N(C)C3)(C(C)C)C(=O)N12 [Bromocriptine, bromocriptine mesylate] | 21 | 28 |  |
| insulin |  |  | not significantly reduced |
